Experimental data as given in PubChem BioAssay AID248 (DTP/NCI, 2004).
“And” between values parts separate entries of the source, which are not always exact repeats. Equal entries are not always repeated. Toxic doses and inconclusive results are not listed. Cut-off read from the data, not from the text of the source: active = T/C of 150% or more; inactive = T/C below 125%.

Test system: L1210 leukemia ip in BDF1 mice, survival T/C
Assay: NCI In Vivo Anticancer Drug Screen. Data for tumor model L1210 Leukemia (intraperitoneal) in B6D2F1 (BDF1) mice
Conditions: endpoint: mean survival time, higher = longer survival
Outline: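 Value reflects the ratio of survival in compound-treated mice to survival in vehicle-treated controls, with both groups carrying the same transplanted tumor.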

[1] = dose: 100.0 mg/kg/injection, schedule: Q01DX009 (ip), vehicle: Klucel (hydroxypropylcellulose) (HPC)
[2] = dose: 200.0 mg/kg/injection, schedule: Q01DX009 (ip), vehicle: Klucel (hydroxypropylcellulose) (HPC)
[3] = dose: 400.0 mg/kg/injection, schedule: Q01DX009 (ip), vehicle: Klucel (hydroxypropylcellulose) (HPC)
[4] = dose: 50.0 mg/kg/injection, schedule: Q01DX009 (ip), vehicle: saline
[5] = dose: 100.0 mg/kg/injection, schedule: Q01DX009 (ip), vehicle: saline
[6] = dose: 100.0 mg/kg/injection, schedule: Q04DX003 (ip), vehicle: saline
[7] = dose: 200.0 mg/kg/injection, schedule: Q04DX003 (ip), vehicle: saline
[8] = dose: 100.0 mg/kg/injection, schedule: Q01DX001 (ip), vehicle: Klucel (hydroxypropylcellulose) (HPC)
[9] = dose: 200.0 mg/kg/injection, schedule: Q01DX001 (ip), vehicle: Klucel (hydroxypropylcellulose) (HPC)
[10] = dose: 400.0 mg/kg/injection, schedule: Q01DX001 (ip), vehicle: Klucel (hydroxypropylcellulose) (HPC)
[11] = dose: 12.5 mg/kg/injection, schedule: Q04DX003 (ip), vehicle: saline
[12] = dose: 25.0 mg/kg/injection, schedule: Q04DX003 (ip), vehicle: saline
[13] = dose: 100.0 mg/kg/injection, schedule: Q04DX003 (ip), vehicle: Klucel (hydroxypropylcellulose) (HPC)
[14] = dose: 200.0 mg/kg/injection, schedule: Q04DX003 (ip), vehicle: Klucel (hydroxypropylcellulose) (HPC)
[15] = dose: 400.0 mg/kg/injection, schedule: Q04DX003 (ip), vehicle: Klucel (hydroxypropylcellulose) (HPC)
[16] = dose: 100.0 mg/kg/injection, schedule: Q01DX001 (ip), vehicle: saline
[17] = dose: 100.0 mg/kg/injection, schedule: Q01DX009 (ip), vehicle: saline with Tween-80
[18] = dose: 200.0 mg/kg/injection, schedule: Q01DX001 (ip), vehicle: saline
[19] = dose: 200.0 mg/kg/injection, schedule: Q01DX009 (ip), vehicle: saline with Tween-80
[20] = dose: 400.0 mg/kg/injection, schedule: Q01DX001 (ip), vehicle: saline
[21] = dose: 400.0 mg/kg/injection, schedule: Q01DX009 (ip), vehicle: saline with Tween-80
[22] = dose: 100.0 mg/kg/injection, schedule: Q04DX003 (ip), vehicle: saline with Tween-80
[23] = dose: 200.0 mg/kg/injection, schedule: Q04DX003 (ip), vehicle: saline with Tween-80
[24] = dose: 400.0 mg/kg/injection, schedule: Q04DX003 (ip), vehicle: saline with Tween-80
[25] = dose: 25.0 mg/kg/injection, schedule: Q01DX009 (ip), vehicle: Klucel (hydroxypropylcellulose) (HPC)
[26] = dose: 50.0 mg/kg/injection, schedule: Q01DX009 (ip), vehicle: Klucel (hydroxypropylcellulose) (HPC)
[27] = dose: 12.5 mg/kg/injection, schedule: Q01DX009 (ip), vehicle: saline
[28] = dose: 50.0 mg/kg/injection, schedule: Q04DX003 (ip), vehicle: saline

Measured: T/C

O=C(c1cccc(C(=O)N(c2ccccc2)C2CCCCC2)c1)N(c1ccccc1)C1CCCCC1
inactive: [1] 100 % of control | [2] 94 % of control | [3] 98 % of control

COc1cc(CC2COCC2Cc2ccc3c(c2)OCO3)cc(OC)c1OC (configuration not stated)
inactive: dose: 25.0 mg/kg/injection, schedule: Q01DX009 (ip), vehicle: acetone 110 % of control | dose: 50.0 mg/kg/injection, schedule: Q01DX009 (ip), vehicle: acetone 101 % of control | dose: 100.0 mg/kg/injection, schedule: Q01DX009 (ip), vehicle: acetone 103 % of control

O=C(Nc1ccc(CC2=NCCCN2)cc1)c1ccc(C(=O)Nc2ccc(CC3=NCCCN3)cc2)cc1
inactive: dose: 0.5 mg/kg/injection, schedule: Q01DX Z (ip), vehicle: water 95 % of control | dose: 1.0 mg/kg/injection, schedule: Q01DX Z (ip), vehicle: water 103 % of control

CCCNC(=O)c1cc(NC(=O)Nc2ccc(C3=NCCN3)cc2)cc(NC(=O)Nc2ccc(C3=NCCN3)cc2)c1
inactive: dose: 2.5 mg/kg/injection, schedule: Q01DX Z (ip), vehicle: carboxymethylcellulose (CMC) 104 % of control | dose: 5.0 mg/kg/injection, schedule: Q01DX Z (ip), vehicle: carboxymethylcellulose (CMC) 112 % of control | dose: 20.0 mg/kg/injection, schedule: Q01DX Z (ip), vehicle: carboxymethylcellulose (CMC) 124 % of control | dose: 42.0 mg/kg/injection, schedule: Q01DX Z (ip), vehicle: carboxymethylcellulose (CMC) 115 % of control

O=C1/C(=C/c2ccco2)CC2CCCCC12 (configuration not stated)
inactive: [4] 95 % of control | [5] 102 % of control | [6] 88 % of control | dose: 200.0 mg/kg/injection, schedule: Q01DX009 (ip), vehicle: saline 90 % of control | [7] 102 % of control

CC(N)C(=O)NC(C(=O)O)C(C)O (configuration not stated)
inactive: dose: 25.0 mg/kg/injection, schedule: Q04DX002 (ip), vehicle: saline 98 % of control | dose: 50.0 mg/kg/injection, schedule: Q04DX002 (ip), vehicle: saline 121 % of control | dose: 100.0 mg/kg/injection, schedule: Q04DX002 (ip), vehicle: saline 113 % of control

Nc1cc([N+](=O)[O-])cc([N+](=O)[O-])c1Cl
inactive: [8] 93 % of control | [9] 96 % of control | [10] 101 % of control

CN(C)c1ccc(C2=CC3CCCC(C2)N3C)cc1 (configuration not stated)
inactive: [11] 100 % of control | [12] 97 % of control

CCCC(C)C1(CC)C(=O)NC(=O)NC1=O (configuration not stated)
inactive: dose: 20.0 mg/kg/injection, schedule: Q01DX001 (ip), vehicle: saline 97 % of control | dose: 20.0 mg/kg/injection, schedule: Q04DX003 (ip), vehicle: saline 93 % of control | dose: 40.0 mg/kg/injection, schedule: Q01DX001 (ip), vehicle: saline 103 % of control | dose: 40.0 mg/kg/injection, schedule: Q04DX003 (ip), vehicle: saline 98 % of control | dose: 75.0 mg/kg/injection, schedule: Q01DX001 (ip), vehicle: saline 107 % of control | dose: 80.0 mg/kg/injection, schedule: Q01DX001 (ip), vehicle: saline 108 % of control | dose: 80.0 mg/kg/injection, schedule: Q04DX003 (ip), vehicle: saline 97 % of control | dose: 160.0 mg/kg/injection, schedule: Q01DX001 (ip), vehicle: saline 108 % of control

CCCC(=O)c1ccc2oc3ccccc3c2c1
inactive: [1] 100 % of control | [13] 102 % of control | [2] 94 % of control | [14] 102 % of control | [3] 96 % of control | [15] 98 % of control

Cc1cc(C)c(C(N)=O)c(N)n1
inactive: [13] 105 % of control | [14] 90 % of control | [15] 106 % of control

CCNS(=O)(=O)c1cccc(C(=S)OCC)c1
inactive: [8] 105 % of control | [9] 101 % of control | [10] 108 % of control

CSc1ccc(NC(=O)Nc2c(C)n(C)n(-c3ccccc3)c2=O)cc1
inactive: [16] 89 % of control | [17] 89 % of control | [6] 94 % of control | [18] 89 % of control | [19] 89 % of control | [7] 94 % of control | [20] 94 % of control | [21] 86 % of control | dose: 400.0 mg/kg/injection, schedule: Q04DX003 (ip), vehicle: saline 87 % of control

COC(=O)C1=CCN(C)CC1
inactive: [16] 93 % of control | [18] 101 % of control | [20] 93 % of control

CC(=O)OCc1ccc[n+](CCc2c[nH]c3ccccc23)c1
inactive: [22] 95 % of control | [23] 90 % of control

COC(=O)C(C)NC(=O)Cc1ccccc1 (configuration not stated)
inactive: [17] 94 % of control | [22] 98 % of control | [19] 92 % of control | [23] 101 % of control | [21] 92 % of control | [24] 97 % of control

S=c1[nH][nH]c(=S)s1
inactive: dose: 12.5 mg/kg/injection, schedule: Q01DX009 (ip), vehicle: Klucel (hydroxypropylcellulose) (HPC) 92 % of control | [25] 95 % of control | [26] 90 % of control | [4] 97 % of control | [1] 101 % of control | [5] 97 % of control

CCOC(=O)/C(C#N)=C/c1ccc(O)cc1
inactive: dose: 100.0 mg/kg/injection, schedule: Q01DX Z (ip), vehicle: methylcellulose (MC) 96 % of control | dose: 200.0 mg/kg/injection, schedule: Q01DX Z (ip), vehicle: methylcellulose (MC) 96 % of control

CSc1cccc(NC(=S)NC(=O)c2ccccc2)c1
inactive: [25] 96 % of control | [26] 94 % of control | [1] 91 % of control

CCCCCCCCCCCCCC[S+](C)C
inactive: [27] 108 % of control | [11] 101 % of control | dose: 25.0 mg/kg/injection, schedule: Q01DX009 (ip), vehicle: saline 123 % of control | [12] 90 % of control | [28] 96 % of control

CN(C(=O)Sc1ccc([N+](=O)[O-])cc1)c1ccccc1
inactive: [22] 91 % of control | [23] 89 % of control | [24] 91 % of control

Cc1ccc(C(=O)/C=C/c2ccco2)c(C)c1
inactive: dose: 100.0 mg/kg/injection, schedule: Q04DX002 (ip), vehicle: Klucel (hydroxypropylcellulose) (HPC) 99 % of control | dose: 200.0 mg/kg/injection, schedule: Q04DX002 (ip), vehicle: Klucel (hydroxypropylcellulose) (HPC) 86 % of control | dose: 400.0 mg/kg/injection, schedule: Q04DX002 (ip), vehicle: Klucel (hydroxypropylcellulose) (HPC) 99 % of control

CSc1ccc2c(c1)N(CCC1CCCCN1C)c1ccccc1S2 (configuration not stated)
inactive: dose: 0.78 mg/kg/injection, schedule: Q01DX009 (ip), vehicle: saline 101 % of control | dose: 1.56 mg/kg/injection, schedule: Q01DX009 (ip), vehicle: saline 103 % of control | dose: 3.12 mg/kg/injection, schedule: Q01DX009 (ip), vehicle: saline 94 % of control and 98 % of control | dose: 6.25 mg/kg/injection, schedule: Q01DX009 (ip), vehicle: saline 94 % of control and 101 % of control | [27] 98 % of control and 116 % of control | [12] 103 % of control | [28] 92 % of control

CC(C)(C)C1CCC(N)CC1 (configuration not stated)
inactive: dose: 12.5 mg/kg/injection, schedule: Q01DX001 (ip), vehicle: carboxymethylcellulose (CMC) 104 % of control | dose: 25.0 mg/kg/injection, schedule: Q01DX001 (ip), vehicle: carboxymethylcellulose (CMC) 98 % of control | dose: 50.0 mg/kg/injection, schedule: Q01DX001 (ip), vehicle: carboxymethylcellulose (CMC) 104 % of control
